Holding throughout (type): cell-based
Assay [1] has as its system CHO-pgsA-745 cells (GAG-deficient mutant). The experiment in a line: Flow cytometry binding of biotinylated compounds to CHO cells (Example 3). Particulars: 30 min at 4 °C, streptavidin-680RD fluorescence; FIG. 3B. How it is done:
Cell lines in exponential growth phase were cultured in complete culture medium with 10% FBS and grown in 75 cm^2 cell culture flasks. On the day of the experiment, cells were harvested and transferred in V-bottom culture plates, washed with PBS 1× supplemented with BSA 3% and then incubated with (51-hS)2KC-Mal-Biotin, (51-hS)2KS-(51-hS)KC-Mal-Biotin, [(51-hS)2KS]2KK(Biotin) and VAR2-Biotin for 30 min at 4° C. in PBS 1× supplemented with BSA 3% (and eventually PEG600 2%) at various dilutions (serial dilutions).
After the incubation, cells were washed in PBS 1× supplemented with BSA 3%. For visualization, cells were incubated for 15 min at 4° C. with streptavidin coupled to 680RD fluorochrome. After the incubation, cells were washed in PBS 1× supplemented with 3% BSA and then incubated for at least 15 min at 4° C. with 4′,6-diamidino-2-phenylindole (DAPI) (Thermo Fisher Scientific) in order to exclude dead cells. Samples were directly applied to a flow cytometer. Data generated on the flow cytometer was analyzed using Flowjo™ 10.6.0.
On the technique in general: Flow cytometry measures light scatter and fluorescence of single cells or particles in a stream.

For a further assay, the system named is HL-60 (leukemia) cells. The experiment in a line: Flow cytometry binding to tumor cell lines (Example 5). The note with it: FIG. 6. The method, then: (§1) Tumor cell lines in exponential growth phase were cultured in complete culture medium with 10% FBS and grown in 75 cm^2 cell culture flasks. On the day of the experiment, cells were harvested and transferred in V-bottom culture plates, washed with PBS 1× supplemented with BSA 3% and then incubated with the compounds for 30 min at 4° C. in PBS 1× supplemented with BSA 3% and PEG600 2% at various dilutions (serial dilutions).
(§2) After the incubation, cells were washed in PBS 1× supplemented with BSA 3%. For biotinylated compounds, cells are then incubated for 15 min at 4° C. with streptavidin coupled to 680RD fluorochrome.
(§3) After the incubation, cells were washed in PBS 1× supplemented with 3% BSA and then incubated for at least 15 min at 4° C. with DAPI (Thermo Fisher Scientific) in order to exclude dead cells and samples are directly applied to a flow cytometer. Data generated using the flow cytometer was analyzed using Flowjo™10.6.0 Fluorescence geometric mean (via the use of streptavidin-680RD) of samples was standardized by subtracting the fluorescence geometric mean of the negative control (no compound) and the addition of 1. Experimental design is outlined in Table 9.

In another assay the test system is U937 (lymphoma) cells. The description is as above. Particulars: FIG. 6. How it is done: as §1, §2, §3

Positions of bridges follow the written chain, without caps; N, C: chain ends. Non-standard residues stand in square brackets, D forms with d. Residues, ends and D or L forms follow the SMILES beside them. Chains are numbered I, II in the order given. ξ: configuration not given here. *: point of attachment. X2 = O=C(CCCCCN1C(=O)CC(*)C1=O)NNC(=O)CCCCC1SC[C@H]2NC(=O)N[C@@H]12; ξIle = CC[C@H](C)C(N)C(=O)O; Orn = NCCC[C@H](N)C(=O)O

As to `CC[C@H](C)C(NC(=O)[C@H](CCCNC(=N)N)NC(=O)[C@H](NC(=O)[C@H](Cc1ccccc1)NC(=O)[C@H](Cc1ccc(O)cc1)NC(=O)[C@H](CCCNC(=N)N)NC(C)=O)C(C)C)C(=O)N[C@@H](CCCN)C(=O)N[C@@H](Cc1ccc(O)cc1)C(=O)N[C@@H](CCCNC(=N)N)C(=O)N[C@H](Cc1c[nH]cn1)C(=O)N[C@@H](CO)C(=O)N[C@@H](CCCCNC(=O)[C@H](CO)NC(=O)[C@@H](Cc1c[nH]cn1)NC(=O)[C@H](CCCNC(=N)N)NC(=O)[C@H](Cc1ccc(O)cc1)NC(=O)[C@H](CCCN)NC(=O)[C@@H](NC(=O)[C@H](CCCNC(=N)N)NC(=O)[C@H](NC(=O)[C@H](Cc1ccccc1)NC(=O)[C@H](Cc1ccc(O)cc1)NC(=O)[C@H](CCCNC(=N)N)NC(C)=O)C(C)C)[C@@H](C)CC)C(=O)N[C@@H](CSC1CC(=O)N(CCCCCC(=O)NNC(=O)CCCCC2SC[C@H]3NC(=O)N[C@@H]23)C1=O)C(N)=O` (stereo partly drawn) [(51-hS)2KC-Mal-Biotin] (I: Ac-RYF[dV]R[ξIle][Orn]YR[dH]SKC(X2)-NH2 / II: Ac-RYF[dV]RI[Orn]YR[dH]S; amide I:12-II:C), in assay [1], the “reduction of fluorescence on CHO-pgsA-745 as compared with fluorescence on CHO-K1 cells” value came to 4.6 fold. For the same compound, the “reduction of binding on HL-60 cells as compared with (51-hS)2KS-(51-hS)KC-Mal-Biotin” value with HL-60 (leukemia) cells is listed as “at least 10 ×”. Also, the “reduction of binding on U937 cells as compared with (51-hS)2KS-(51-hS)KC-Mal-Biotin” value with U937 (lymphoma) cells was “at least 10 ×”.
